Data set [1] is described as follows: Enhancer screening: tritiated water permeation through nails in Franz-type diffusion cells (toenails). Particulars: Table 2; pyrithione gels, each relative to its own control.
Method: Frozen human toenails and fingernails were obtained from tissue banks based on a protocol for size, patient history, etc. The nails were thawed at room temperature for 1 hour, and the adhering skin and tissue was removed with a pair of scissors and a scalpel. The nails were cleaned by rinsing them in a mild detergent solution (1% solution of a standard liquid soap containing sodium and potassium dodecyl benzene sulfonate and ammonium laureth sulfate), followed by two rinses in deionized water (DI water). The thickness of the nails was measured with a micrometer, and the nails were immersed in 10 mL of DI water for 24 hours just prior to use to allow complete hydration and bring all the nails to the same condition for valid comparisons (Kobayashi, et al. (1998) Chem. Pharm. Bull. 46(11):1797-1802; Walters, et al. (1981) J Invest Dermatol 76:76-79; Mertin and Lippold (1997) J Pharm Pharmacol 49:30-34).
Franz-type diffusion cells (Crown Glass Co., Somerville, N.J.), specially designed to hold the human nail were used (Malhotra and Zatz (2000) J Cosmet Sci 51:367-377). The cleaned, trimmed nails were clamped into the diffusion cells. […]
All gels were prepared using the same general procedure. […] The apparent pH of the gels was measured. Prior to use, three 10 μL aliquots of the gel were analyzed by Liquid Scintillation Counting (LSC) to validate uniformity of spiking. […]
For data set [2] the following is noted: 25° C.; Hoogerheide and Wyka (1982); cited from earlier work.
The nature of data set [3]: Solubility of clotrimazole in PEG-20-oleyl ether receptor fluid (HPLC). Format: physicochemical. The following applies: aqueous PEG-20-oleyl ether surfactant solution, 37 °C, aqueous with cosolvent or surfactant or cyclodextrin, thermodynamic from solid, read-out: Solubility of clotrimazole (Mean ± SEM, n = 3). As to the method:
Aqueous solutions of PEG-20-oleyl ether in concentrations of 0.5%, 1%, 2%, and 5% were prepared. Excess clotrimazole was added to vials containing 10 mL of surfactant solution. For each surfactant concentration, the solubility determination was done in triplicate. The vials were agitated in a mechanical shaker bath (Precision Scientific, Chicago, Ill.) maintained at 37° C. for 24 hours. The vials were then centrifuged (Fisher Scientific, Springfield, N.J.) at 4600 rpm for 30 minutes at 25° C. The supernatant was analyzed for drug concentration by High Performance Liquid Chromatography (HPLC).
The HPLC conditions were adapted from well known methods, for example Hoogerheide, et al. ((1981) J Assoc Off Anal Chem 64:864-869) and Rifai, et al. ((1995) Clin Chem 41:387-391). The HPLC analysis was performed using a Waters 600E System Controller Pump, Waters 717 Autoinjector, Waters 486 Tunable Absorbance Detector, and Waters 700 Data Module Integrator. A reverse-phase C-18 column (Waters Novapak, 3.9×150 mm, 4μ) was used. The mobile phase consisted of a mixture of 0.025M dibasic potassium phosphate (pH adjusted to approximately 6.3 with o-phosphoric acid) and HPLC grade methanol in the ratio 1:3. A flow rate of 1 mL/minute was maintained and the detector wavelength was set at 254 nm.
Standard solutions of clotrimazole in mobile phase were prepared in the concentration range of 5-200 μg/mL. The injection volume of standard and sample solutions was 20 μL.
The chromatography conditions yielded a linear standard curve (R^2=0.9995). From the standard curve, the solubility of clotrimazole in different concentrations of PEG-20-oleyl ether was quantitatively determined.

Values after ≈ are worked out from the molar mass of the structure shown. Where two headings read alike, the source gives them in different places. Where only a bound is given, the exact number is not on record here.

Take `[Na+].[O-][n+]1ccccc1[S-]` [NaPTO, sodium pyrithione]: the EFwater in data set [1] is around 1.
As a reminder, the solubility is how much of the substance goes into solution per volume. Turning to `Clc1ccccc1C(c1ccccc1)(c1ccccc1)n1ccnc1` [clotrimazole], the solubility in alcohol in data set [2] was 95000 µg/mL (≈ 275000 µM). Further, the solubility in water in data set [2] was below 10 µg/mL. Further, the solubility at 24 h in data set [3] (0.5% PEG-20-oleyl ether in water) was determined as 75.2 µg/mL (≈ 218 µM); in data set [3] (1.0% PEG-20-oleyl ether in water), 191 µg/mL (≈ 553 µM); in data set [3] (2.0% PEG-20-oleyl ether in water), 499 µg/mL (≈ 1450 µM); in data set [3] (5.0% PEG-20-oleyl ether in water) it was 1350 µg/mL (≈ 3930 µM).
Take zinc pyrithione [ZnPTO]: the EFwater in data set [1] is 1.13.

Values taken from patent publication US6821508B2, “Composition and method for topical nail treatment” (Rutgers, the State University, priority 2001, dated 2004).
